{"source": "patent US9943687B2", "about": "“Method of treating parkinson's disease and other movement disorders” (Duke University, priority 2007, dated 2018)", "key": {"tyrosine hydroxylase": {"system": "tyrosine hydroxylase", "experiment": "Tyrosine hydroxylase staining and quantification in striatum of 6-OHDA lesioned rats", "assay_type": "in vivo, Long-Evans rats", "conditions": "6-OHDA three sites each side, 7 μg per site", "procedure": "Rats received a total of […] 6-OHDA, injected in 3 locations of the striatum on each side. The injections contained a saline solution with 3.5 mg/ml 6-OHDA and 0.05% ascorbate. Anteroposterior, mediolateral and dorsoventral coordinates for the injections were: +1.0, +/−3.0, −5.0; −0.1, +/−3.7, −5.0 and −1.2, +/−4.5 and −5.0 (Winkler et al, Neurobiol. Dis. 10:165 (2002)).\nThe extent and position of striatal lesions was confirmed by TH immunohistochemistry. For quantification of TH-staining, digital photos of the individual sections were taken with a 16× microscope (Stemi 2000-c, Zeiss) under identical illumination conditions. The range in brightness was practically identical for every photo ranging from no light (inside the microscope) at the outer edge to the brightest non-stained part of each section. Images were converted to grey-scale bitmap format with an 8-bit dynamic range in brightness."}, "DAT-KO mice [1]": {"system": "DAT-KO mice", "experiment": "Minimum L-DOPA dose (alone or with DCS) required to restore locomotion", "assay_type": "in vivo", "conditions": "AMPT-treated DAT-KO mice", "procedure": "(§1) Rats were placed in a circular open-field (90 cm diameter) for 70 min (10 min adaptation and 1 h behavioural recording). The animals were then allowed to rest in its home cage for one hour. After that, the animals were reintroduced into the open-field and dorsal column stimulation (DCS) was applied every 10 minutes for 30 seconds. In mice, locomotion was documented both by video recordings and through an automated tracking system based in infra-red beams (Med Associates Inc., VT). Recordings were obtained before and after dopamine-depletion, and DCS was applied as described below.\n(§2) The movements of the rats in the open-field were extracted from the digitized video recordings, with approximately 1 mm spatial resolution, with custom designed algorithms implemented in command interpreting software (The MathWorks Inc., MA). For mice, scored locomotion from the infra-red tracking system was binned into 500 ms bins (original resolution 50 ms). For locomotion extraction from video data, single frames with a 500 ms interval were used.\nIn order to find the minimum dose of L-DOPA (alone or combined with DCS) required to restore locomotion, a severely dopamine-depleted akinetic animal model was used, namely mice lacking the gene for the presynaptic dopamine membrane transporter (DAT-KO). […]"}, "DAT-KO mice [2]": {"system": "DAT-KO mice", "experiment": "LFP spectral index in severely dopamine depleted animals", "assay_type": "in vivo", "conditions": "last hours of testing period, coinciding with onset of locomotion", "procedure": "FIG. 20. Local field potentials are shifted to higher frequencies as a result of DCS even in severely dopamine depleted animals. Average spectral indices (power ratio: [25-55]/[1.5-25] Hz) calculated for DCS+L-DOPA (black) and L-DOPA (grey) treated animals, respectively. DCS induced spectral changes even at the lowest L-DOPA dose tested (a single 1 mg/kg injection) while the spectral change in the L-DOPA only group occurred during the last hours of the testing period (after more than 20 mg/kg L-DOPA in total) coinciding with onset of locomotion.\nStruck by the dramatic functional recovery on the behavioral level, the electrophysiological changes associated with motor improvements were analyzed next. […] The spectral shift was maintained throughout the stimulation period and lasted for ˜50 s following the off-set of stimulation. This indicates a prolonged shift in the activity state of these brain structures, also ruling out any major effects of contamination in the spectrograms from stimulation currents (FIG. 16C). To condense the spectral shift into a single measure, a spectral index was computed by dividing the spectral range analyzed into an upper and lower half and calculating the ratio of the summed power of the frequencies in the two intervals [(25-55 Hz)/(1.5-25 Hz)]. […]"}, "wild-type mice [3]": {"system": "wild-type mice", "experiment": "Catalepsy test (forepaws on bar 3 cm above the ground)", "assay_type": "in vivo, wild-type C57/BL6J mice", "conditions": "after the 6 h depletion period", "procedure": "The first set of experiments was carried out using an inducible mouse model of PD, first in wild-type animals and then in dopamine-transporter knock-out (DAT-KO) mice (Sotnikova et al, PLoS Biol. 3:e271 (2005)). Through pharmacological inhibition of dopamine synthesis, acute dopamine depletion was induced in both types of animals in order to reliably document the effects of DCS during a severe parkinsonian-like state of akinesia. In agreement with previous experiments, the characteristic behavioral and electrophysiological changes following inhibition of dopamine synthesis was confirmed in these animals (Carlsson, Acta Neurol. Scand. Suppl 51:11 (1972), Costa et al, Neuron. 52:359 (2006), Sotnikova et al, PLoS Biol. 3:e271 (2005)). In patients, the cardinal symptoms of idiopathic PD, rigidity, resting tremor and brady-/hypokinesia, have been reported to be clinically apparent following degeneration of 60-70% of the dopaminergic neurons of the substantia nigra pars compacta, which in turn results in a […] reduction of striatal dopamine levels (Brooks et al, Biol. Psychiatry 59:908 (2006), Lloyd et al, J. Pharmacol. Exp. Ther. 195:453 (1975)). […]"}, "[4]": {"system": "striatal dopamine concentrations", "conditions": "cited from earlier work"}, "wild-type mice [5]": {"system": "wild-type mice", "experiment": "Open-field locomotion after acute pharmacological dopamine depletion", "assay_type": "in vivo, wild-type C57/BL6J mice", "procedure": "as §1, §2\nThe number of bins used for histograms of locomotion speeds was adjusted according to the maximum speed scored in a single bin in the slowest condition (i.e. 500 mm/s for the rats and 180 mm/s for the mice). The relatively few (<0.3%) events with locomotion components faster than the upper limit found in the other conditions were assigned to the fastest bin. The number of events within each speed interval was summed and the relative change in response to DCS was calculated. A lower threshold just above the quantal step was used in the analysis of histogram distributions, i.e. 10 mm/500 ms for both mouse and rat data.\n(§3) The first set of experiments was carried out using an inducible mouse model of PD, first in wild-type animals and then in dopamine-transporter knock-out (DAT-KO) mice (Sotnikova et al, PLoS Biol. 3:e271 (2005)). Through pharmacological inhibition of dopamine synthesis, acute dopamine depletion was induced in both types of animals in order to reliably document the effects of DCS during a severe parkinsonian-like state of akinesia. In agreement with previous experiments, the characteristic behavioral and electrophysiological changes following inhibition of dopamine synthesis was confirmed in these animals (Carlsson, Acta Neurol. Scand. Suppl 51:11 (1972), Costa et al, Neuron. 52:359 (2006), Sotnikova et al, PLoS Biol. 3:e271 (2005)). In patients, the cardinal symptoms of idiopathic PD, rigidity, resting tremor and brady-/hypokinesia, have been reported to be clinically apparent following degeneration of 60-70% of the dopaminergic neurons of the substantia nigra pars compacta, which in turn results in a […] reduction of striatal dopamine levels (Brooks et al, Biol. Psychiatry 59:908 (2006), Lloyd et al, J. Pharmacol. Exp. Ther. 195:453 (1975)). […] Secondly, a pronounced muscle tremor was evident during resting periods, which was reflected in characteristic oscillatory patterns in electromyographic (EMG) recordings obtained from chronically implanted microwires in the nuchal muscles (FIG. 12). This tremor was suppressed during locomotion bouts. […] (FIG. 13A, see also Drouot et al, Neuron 44:769 (2004) and Sakai et al, Brain Res. 633:144 (1994))."}, "[6]": {"system": "striatal levels of dopamine", "experiment": "Tissue content analysis of striatal dopamine and metabolites (HPLC-EC) after AMPT", "assay_type": "in vivo, wild-type C57/BL6J mice", "procedure": "FIGS. 11A-11C. Tissue content analysis confirms that acute pharmacological dopamine depletion in wild-type mice leads to striatal dopamine levels similar to those observed in PD patients. […] Average quantities in depleted animals were reduced for dopamine, DOPAC and HVA to: 4.5 ng, 0.17 ng and 0.41 ng per mg tissue, respectively, compared to 14.4 ng, 0.74 ng and 1.36 ng per mg tissue, for saline injected control animals (**=p<0.005, Mann-Whitney test, n=6 in each group). Tissue content analysis of dopamine and metabolites.\nStriatal tissue content of dopamine was assessed using high performance liquid chromatography with electrochemical detection, as previously described. Striata were rapidly dissected, frozen, and stored at −80° C. Later, tissue samples were homogenized in 0.1M HClO4 containing 100 ng/ml 3,4-dihydroxybenzylamine (DHBA) as an internal standard. Homogenates were centrifuged for 10 min at 10,000×g. Supernatants were filtered through 0.22 μm filter and analyzed for levels of dopamine using HPLC-EC. Monoamines and metabolites were separated on a microbore reverse-phase column (C-18, 5 μm, 1×150 mm, Unijet, BAS). The volume of injection was 5 μl.\nas §3"}, "corticostriatal circuit": {"system": "corticostriatal circuit", "experiment": "Corticostriatal LFP oscillations / dopamine spectral index after AMPT injection", "assay_type": "in vivo, C57/J (wild type) male mice", "conditions": "after AMPT injection 250 mg/kg i.p.", "procedure": "Two C57/J (wild type) male mice where implanted with peripheral nerve cuff electrodes, microwire electrodes arrays in the striatum and motor cortex and one EMG wire in the trapezium muscle. After a week of recovery, a series of experiments were carried out. Individual animals were introduced to the open field activity (OFA) monitor cage, which permitted tracking of the animal's locomotive activity. After 10 minutes, the animal was injected with AMPT (250 mg/kg, i.p.) to produce a partial depletion in dopamine brain levels. The stimulation started 15 minutes after the injection. It was delivered in 2-minute windows, alternated with 2 minutes of rest (no stimulation). The amplitude was fixed at 0.4 mA. This value was selected on the basis that it produced a noticeable effect on the animal (soft scratching of the whiskers pads) at the onset of stimulation but no further signs of discomfort or pain. Sixteen different frequency values delivered in a pseudorandom way (1-130 Hz) were tested.\nThe key observation in these experiments was that IS at some frequencies could revert this strong neural oscillation pattern to the type of desynchronized firing activity observed during the control period. […] In order to quantify this observation, the ratio between the LFP power in the 2-4 Hz and 0-4 Hz range was used as an indicator of the predominant oscillatory pattern (FIG. 6). […]"}, "[7]": {"conditions": "two i.p. injections of 250 mg/kg, 2 hours apart, measured 4 hours after last injection, n=6"}}, "note": "Where “and” joins values, the source holds several entries; their conditions need not be identical. Equal entries are not always repeated."}
{"smiles": "NCCc1cc(O)c(O)cc1O", "note": "[6-OHDA]", "values": [{"measurement": "tyrosine hydroxylase staining relative to sham treated controls", "setting": "tyrosine hydroxylase", "result": "~20% and 21%"}]}
{"smiles": "N[C@@H](Cc1ccc(O)c(O)c1)C(=O)O", "note": "[L-DOPA]", "values": [{"measurement": "L-DOPA injection dose at which locomotion first occurred", "setting": "DAT-KO mice [1]; L-DOPA injections every hour with increasing dose", "result": 5, "unit": "mg/kg"}, {"measurement": "total L-DOPA dose when locomotion first occurred", "setting": "DAT-KO mice [1]; cumulative dose of hourly injections", "result": 15, "unit": "mg"}, {"measurement": "total L-DOPA dose at which spectral change occurred", "setting": "DAT-KO mice [2]", "result": "more than 20 mg/kg"}]}
{"smiles": "CC(N)(Cc1ccc(O)cc1)C(=O)O", "note": "(stereo not drawn) [AMPT, α-methyl-p-tyrosine]", "values": [{"measurement": "catalepsy: time unable to remove the forepaws from bar", "setting": "wild-type mice [3]", "result": "at least 30 s"}, {"measurement": "dopamine levels after AMPT in DAT-KO mice", "setting": "[4]; 250 mg/kg i.p.", "result": "virtually undetectable levels"}, {"measurement": "duration of severe akinesia, rigidity and tremors", "setting": "[4]; DAT-KO mice treated with AMPT", "result": "up to 16 hours"}, {"measurement": "striatal dopamine concentration relative to control animals", "setting": "[4]; DAT-KO mice treated with AMPT", "result": 0.2, "unit": "%"}, {"measurement": "average amount of locomotion as percentage of control values", "setting": "wild-type mice [5]; depleted animals during testing periods", "result": "~10", "unit": "%"}, {"measurement": "average locomotion score in open-field (mean±SEM)", "setting": "wild-type mice [5]; depleted animals, n=14", "result": "0.4±0.02", "unit": "mm/s"}, {"measurement": "locomotion score, fast movements, as percentage of non-depleted animals", "setting": "wild-type mice [5]; fast speed interval", "result": 0.3, "unit": "%"}, {"measurement": "locomotion score, medium movements, as percentage of non-depleted animals", "setting": "wild-type mice [5]; medium speed interval", "result": 2.0, "unit": "%"}, {"measurement": "locomotion score, slow movements, as percentage of non-depleted animals", "setting": "wild-type mice [5]; slow speed interval", "result": 10.5, "unit": "%"}, {"measurement": "reduction of striatal dopamine levels", "setting": "[6]; two i.p. injections (250 mg/kg) during a 6 h period", "result": 69, "unit": "%"}, {"measurement": "striatal DOPAC tissue content in depleted animals", "setting": "[6]; [7]", "result": 0.17, "unit": "ng per mg tissue"}, {"measurement": "striatal HVA tissue content in depleted animals", "setting": "[6]; [7]", "result": 0.41, "unit": "ng per mg tissue"}, {"measurement": "striatal dopamine tissue content in depleted animals", "setting": "[6]; two i.p. injections of 250 mg/kg, 2 hours apart, measured 4 hours after last injection, n=6, 250 mg/kg", "result": "4.5±2.0 ng per mg tissue and 4.5 ng per mg tissue"}, {"measurement": "frequency of strong LFP synchronization after dopamine depletion", "setting": "corticostriatal circuit", "result": 4, "unit": "Hz"}, {"measurement": "dopamine spectral index (LFP power 2-4 Hz / 0-4 Hz)", "setting": "corticostriatal circuit; basal value around 0.5", "result": "~1"}]}
